Results from publication PMC5548745, “Agonist-induced dimer dissociation as a macromolecular step in G protein-coupled receptor signaling” (Nature Communications, 2017).
“Also recorded” adds a separate entry of the source.

What was measured:
TM4 peptide of FZD6 = test: analytical size-exclusion chromatography of TM peptides; format: binding, human; conditions: TDW + 0.01% DDM; 500 µM each peptide; Superdex 30; 0.8 ml min^−1; room temperature; 215 nm; 2 h incubation
Protocol: Analytical SEC was performed on an ÄKTA Explorer with a Superdex 30 analytical column (GE Healthcare) equilibrated with TDW + 0.01% DDM. Peptides were eluted with a flow rate of 0.8 ml min^−1 at room temperature. Elution profile was monitored by UV absorbance at 215 nm. For the binding experiments, the peptides were incubated together in TDW + 0.01% DDM at room temperature for 2 h.

FZD6-TM4 = molecular target: T1, FZD6-TM4 (Homo sapiens, UniProt O60353); test: isothermal titration calorimetry of TM peptides; format: binding; conditions: 820 µM TM5 or TM5 mut into 165 µM TM4; 0.5% DDM; 20 °C; one set of sites
T1 construct: purchased Pepscan Therapeutics (Lelystad, Netherlands); host or cells: chemical synthesis (Fmoc solid phase)
T1 sequence (O60353 with tags, fused parts or gaps limits assumed): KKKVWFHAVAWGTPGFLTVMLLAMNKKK
Protocol: (§1) CD spectra were recorded using a J-810 spectropolarimeter (Jasco, Easton, MD, USA) in a 0.1 cm quartz cuvette. Far-UV CD spectra were collected over 190–260 nm. ITC measurements were carried out at 20 °C on an ITC (VP–ITC 200, MicroCal). 820 µM FZD6 TM5 and 165 µM FZD6 TM4 were dissolved in 0.5% DDM in water. 2 µl of TM5 peptide were injected into 260 µl TM4 during each titration. The ITC data were analyzed with the Origin 7.0 software.

[1] = circular dichroism of synthetic TM peptides; format: physicochemical
Protocol: as §1
Supplementary Figure 5: Circular dichroism (CD) and isothermal titration calorimetry (ITC) experiments for structural analysis of synthetic peptides resembling TM1, 4, 5 and mutant TM5 and of peptide-peptide interactions, related to Figure 3. Synthetic peptides (for sequence see Supplementary Fig. 9) resembling TM1 (a), 4 (b), 5 (c) and mutant TM5 (d) were used for CD experiments in triple distilled water with increasing DDM concentrations (0% DDM – black, 0.01% DDM – blue, 0.1% DDM – green and 0.5% DDM – red). (c)TM5 is unstructured in TDW and begins to gain structure at 0.1% DDM. It forms a clear α-helical structure in 0.5% DDM. The triple mutated TM5 (d) forms an α-helix in a much lower DDM concentration (0.01% DDM). […]

FZD6–FZD6 dimer = test: dcFRAP of V5-FZD6-mCherry/FZD6-GFP (FZD6 dimerization); format: cell-based, human; conditions: HEK293, 85–101 s, mean ± s.e.m.
Protocol: (§2) For dual color FRAP experiments, cells grown in four compartment 35 mm glass bottom dishes were washed three times with BE buffer[19] (150 mM NaCl, 2.5 mM KCl, 10 mM HEPES, 12 mM glucose, 0.5 mM CaCl2, and 0.5 mM MgCl2). Then, the cells were incubated at RT for 30 min with biotin-conjugated goat polyclonal anti-V5 antibody (Bethyl) diluted 1:100 in BE buffer supplemented with 2.5% bovine serum albumin. For antibody-mediated cross-linking, avidin was added and incubated for 15 min and washed two times with BE buffer before the experiments were performed. In Fig. 4, dcFRAP experiments are presented that employ chemical surface crosslinking to visualize assembly of FZD6 with DVL or heterotrimeric G proteins according to previously published protocols. Live cell imaging experiments were carried out using a Zeiss 710 laser scanning microscope. Images were acquired using a 40×, 1.2 NA C-Apochromat objective and the 488 nm and the 561 nm laser lines were used to excite GFP and mCherry fluorophores, respectively. Photobleaching was performed by 100% laser illumination of a 1.80 × 1.80 µm area placed over the cell plasma membrane. Fluorescence was measured pre- and post-bleach using low-intensity illumination for a total time period of 100 s. Average pixel intensity was measured using the ZEN2013 software, corrected for background fluctuations and bleaching artifacts and normalized to pre-bleached intensity. The recovered mobile fraction (F m) was calculated as follows: F m = (I P–I 0)/(I I–I 0), where I I is the initial intensity measured prior to bleaching, I 0 is the immediate fluorescence intensity post-bleaching and I P is intensity value post-bleaching. The mobile fraction was defined by the average of the fluorescence recovery assessed between time 85–101 s (including pre-bleach measurements). We excluded experiments in which the extracellularly tagged receptors were not sufficiently immobilized after the crosslinking procedure (cutoff at 40% crosslinking-induced reduction in mobile fraction). Kinetic determination of mobile fractions of crosslinked V5-FZD6-mCherry and FZD6-GFP with WNT stimulation over time were performed in one cell culture well. Measurements for each time point were performed on separate cells.
Statistical and graphical analysis was performed using Graph Pad Prism 5 software. Data were analyzed by two-tailed t-test or one-way ANOVA with Fisher’s least significant difference post hoc analysis. Curve fitting of FRAP data was done with a two-phase association nonlinear function using the least square fit. Data for receptor titration in the presence of C59 and output to P-ERK1/2 in Fig. 6h was fit to a linear regression model. All experiments were repeated at least three times in independent experiments (not representing technical replicates). For single cell analysis (dcFRAP), the number of the individual ROIs obtained from several cells in at least three independent experiments is provided in the figure legends. Data from individual ROIs are summarized for data presentation providing the sum of independent observations. Significance levels are given as: *P < 0.05; **P < 0.01; ***P < 0.001. Data in FRAP curves and bar graphs (FRAP) are presented as mean ± s.e.m.

[2] = system: ERK1/2 phosphorylation in HEK293 cells; test: P-ERK1/2 immunoblot, HEK293 cells expressing SNAP-FZD6 constructs; format: cell-based
Protocol: Fig. 6 Relationship between FZD6 dimerization and phosphorylation of ERK1/2. a Mouse lung epithelial (MLE-12) cells were stimulated with WNT-5A (300 ng ml^−1) for 0, 2.5, 5, 10, 20 min. Cell lysates were analyzed for P-ERK1/2 and β-actin by immunoblotting. Additional information in Supplementary Fig. 6. b Bar graph summarizes three independent experiments. Densitometry data were normalized to the unstimulated control. […] Additional information in Supplementary Fig. 6. SNAP-FZD6 wt- and SNAP-FZD6 dimer mutant-induced ERK1/2 phosphorylation in the absence e and presence f of the porcupine inhibitor C59 (5 µM, overnight) were probed by immunoblotting for the SNAP-tag, P-ERK1/2, total ERK1/2 and β-actin. g The bar graph summarizes densitometry data of P-ERK1/2 normalized to total ERK1/2 from 6 different experiments. P = 0.0005; F (2, 15) = 13.08. ***P < 0.001. Empty vector transfection was used as mock. h Increasing amounts of plasmid of either SNAP-FZD6 wt or SNAP-FZD6 dimer mutant in the presence of C59 show a dose-dependent increase in P-ERK1/2 only with the dimer mutant. Data from three independent experiments for the dimer mutant were fit to a linear least-squares model (slope = 0.40 ± 0.10; R ^2 = 0.5943) and this line is shown superimposed. […] This dissociation-dependent activation can be evoked by agonist (WNT^high) or mutation of the dimer interface (symbolized by red stars). WNT^low conditions can be achieved in the presence of C59, which reduces FZD6 wt signaling
MLE-12 or HEK293 cells (ATCC) were plated in a 24- or 48-well plate at a density of 100,000 or 50,000 cells/well, respectively. After 24 h, cells were transfected using Lipofectamine 2000 according to the manufacturer’s instructions. Cells were stimulated (24 h post-transfection) with 300 ng ml^−1 recombinant carrier-free WNT-5A (CF WNT-5A; R&D Systems). Stimulation was stopped by the addition of lysis buffer (1% NP-40, 150 mM NaCl, 50 mM Tris/HCl pH 8). Lysates were sonicated and analyzed by 7.5 or 10% Mini-PROTEAN TGX precast polyacrylamide gels (Bio-Rad) and transferred to PVDF membranes using the Trans-Blot Turbo system (Bio-Rad). After blocking with 5% milk or BSA in TBS-T, membranes were incubated with primary antibodies in blocking buffer: mouse anti-β-actin (1:30,000; Sigma #A5441), rabbit anti-FZD6 (1:1000; NovusBio #NBP1-00830), rabbit anti-Phospho-p44/42 MAPK (ERK1/2) (Thr202/Tyr204) (1:1000; Cell Signaling Technology #9101 L), rabbit anti-p44/42 MAPK (ERK1/2) (1:1000; Cell Signaling Technology #9102), rabbit anti-Phospho-C-RAF (Ser338) (1:1000; Cell Signaling Technology #56A6), rabbit anti-SNAP tag (1:1000, New England Biolabs #P9310S), and rabbit anti-HA (1:4000, abcam #ab9110) overnight at 4 °C. Proteins were detected with horseradish peroxidase-conjugated secondary antibodies (goat anti-rabbit and goat anti-mouse (Pierce)) and Clarity Western ECL Blotting Substrate (Bio-Rad). All uncropped immunoblots can be found in the Supplementary Information.

V5-FZD6-mCherry = test: dcFRAP of V5-FZD6-mCherry/CB1-GFP (negative control); format: cell-based, human; conditions: HEK293
Protocol: as §2, with “Kinetic determination of mobile fractions of crosslinked V5-FZD6-mCherry and FZD6-GFP with WNT stimulation over time were performed in one cell culture well. Measurements for each time point were performed on separate cells.” left out

[3] = CD, triple distilled water with 0, 0.01, 0.1, 0.5% DDM

Molecule: WKKLAASAAFVLLPLCLCVFVGLSLLLAGIISKKK [TM5 mut, TM5 peptide with D365A, R368A, Y369A mutations]
- SEC elution volume in combination with TM4 (TM4 peptide of FZD6): did not result in a shift to a higher elution volume
- ITC affinity (dissociation constant, K D) to TM4 (FZD6-TM4): does not interact
- DDM concentration at which α-helix forms [1, 3]: 0.01%

Molecule: KKLDASRYFVLLPLCLCVFVGLSLLLAGIISKKK [TM5, synthetic peptide of FZD6 transmembrane helix 5]
- SEC elution volume in combination with TM4 (TM4 peptide of FZD6): eluted at a greater volume than TM4 and TM5 alone
- ITC affinity (dissociation constant, K D) to TM4 (FZD6-TM4): micromolar affinity; also recorded: in the micromolar range
- DDM concentration at which peptide begins to gain structure [1, 3]: 0.1%
- DDM concentration at which α-helix forms [1, 3]: 0.5%
- secondary structure in detergent (CD) ([1]; DDM detergent solution, lipophilic environment): structured and α-helical
- secondary structure in TDW (CD) ([1]; triple distilled water, 0% DDM, 190–260 nm): unstructured

B1: FZD6 wt: wild-type FZD6 receptor construct (SNAP-tagged in ERK assays; GFP-tagged in b181) (protein)
chain: HSLFTCEPITVPRCMKMAYNMTFFPNLMGHYDQSIAAVEMEHFLPLANLECSPNIETFLCKAFVPTCIEQIHVVPPCRKLCEKVYSDCKKLIDTFGIRWPEELECDRLQYCDETVPVTFDPHTEFLGPQKKTEQVQRDIGFWCPRHLKTSGGQGYKFLGIDQCAPPCPNMYFKSDELEFAKSFIGTVSIFCLCATLFTFLTFLIDVRRFRYPERPIIYYSVCYSIVSLMYFIGFLLGDSTACNKADEKLELGDTVVLGSQNKACTVLFMLLYFFTMAGTVWWVILTITWFLAAGRKWSCEAIEQKAVWFHAVAWGTPGFLTVMLLAMNKVEGDNISGVCFVGLYDLDASRYFVLLPLCLCVFVGLSLLLAGIISLNHVRQVIQHDGRNQEKLKKFMIRIGVFSGLYLVPLVTLLGCYVYEQVNRITWEITWVSDHCRQYHIPCPYQAKAKARPELALFMIKYLMTLIVGISAVFWVGSKKTCTEWAGFFKRNRKRDPISESRRVLQESCEFFLKHNSKVKHKKKHYKPSSHKLKVISKSMGTSTGATANHGTSAVAITSHDYLGQETLTEIQTSPETSMREVKADGASTPRLREQDCGEPASPAASISRLSGEQVDGKGQAGSVSESARSEGRISPKSDITDTGLAQSNNLQVPSSSEPSSLKGSTSLLVHPVSGVRKEQGGGCHSDT
modifications: left off: V5 (on the crosslinked copy), N-terminal, kept | mCherry (on the crosslinked copy), C-terminal, kept | GFP (on the other, mobile copy), C-terminal, kept
- mobile fraction of FZD6-GFP before CL (FZD6–FZD6 dimer; basal, without biotinylated anti-V5/avidin crosslinking, N = 21 ROIs): 80,78 ± 2,053%
- mobile fraction of FZD6-GFP after CL (FZD6–FZD6 dimer; with biotinylated anti-V5/avidin crosslinking, N = 31 ROIs): 70,69 ± 2,416%
- P-ERK1/2 induction in presence of C59 ([2]; HEK293, C59 5 µM overnight): reduced to basal
- effect of overexpression on basal P-ERK1/2 without C59 ([2]; serum-starved HEK293, no C59): increased basal P-ERK1/2

B2: CB1-GFP: GFP-tagged cannabinoid CB1 receptor, negative control (protein)
chain: MKSILDGLADTTFRTITTDLLYVGSNDIQYEDIKGDMASKLGYFPQKFPLTSFRGSPFQEKMTAGDNSPLVPAGDTTNITEFYNKSLSSFKENEENIQCGENFMDMECFMILNPSQQLAIAVLSLTLGTFTVLENLLVLCVILHSRSLRCRPSYHFIGSLAVADLLGSVIFVYSFVDFHVFHRKDSPNVFLFKLGGVTASFTASVGSLFLTAIDRYISIHRPLAYKRIVTRPKAVVAFCLMWTIAIVIAVLPLLGWNCKKLQSVCSDIFPLIDETYLMFWIGVTSVLLLFIVYAYMYILWKAHSHAVRMIQRGTQKSIIIHTSEDGKVQVTRPDQARMDIRLAKTLVLILVVLIICWGPLLAIMVYDVFGKMNKLIKTVFAFCSMLCLLNSTVNPIIYALRSKDLRHAFRSMFPSCEGTAQPLDNSMGDSDCLHKHANNTASMHRAAESCIKSTVKIAKVTMSVSTDTSAEAL
modifications: left off: GFP, end not stated, kept
notes: GFP-tagged cannabinoid CB1 receptor, negative control
- CL-induced reduction in mobile fraction of CB1-GFP (V5-FZD6-mCherry; antibody-treated, co-expressing V5-FZD6-mCherry): did not exhibit a reduction in the mobile fraction of CB1-GFP upon crosslinking
- mobile fraction, CB1 experiment after CL (V5-FZD6-mCherry; with crosslinking, n=34): 77,12 ± 2,601%
- mobile fraction, CB1 experiment before CL (V5-FZD6-mCherry; without crosslinking, n=29): 78,48 ± 2,373%
